The source of these data is US9163042B2, “Prodrugs of pyridone amides useful as modulators of sodium channels” (VERTEX PHARMACEUTICALS INCORPORATED, priority 2013, dated 2015).

Data set [1] can be described thus: Chemical and physical stability of crystalline Form B (XRPD, HPLC impurity profile, appearance). The class given is physicochemical. The text has this:
Chemically and physically stable means no changes were observed on the X-ray powder diffraction and HPLC impurity profiles (e.g., less than 0.2% variance) and there were no observed changes in physical appearance of the samples.

The target of the next data set is human Nav1.8 (Homo sapiens (Human), UniProt Q9Y5Y9). Description: E-VIPR optical membrane potential assay with electrical stimulation (NaV1.8 IC50 activity). In kind it is cell-based. The text has this:
Sodium channels are voltage-dependent proteins that can be activated by inducing membrane voltage changes by applying electric fields. The electrical stimulation instrument and methods of use are described in Ion Channel Assay Methods PCT/US01/21652, herein incorporated by reference and are referred to as E-VIPR. The instrument comprises a microtiter plate handler, an optical system for exciting the coumarin dye while simultaneously recording the coumarin and oxonol emissions, a waveform generator, a current- or voltage-controlled amplifier, and a device for inserting electrodes in well. Under integrated computer control, this instrument passes user-programmed electrical stimulus protocols to cells within the wells of the microtiter plate.
24 hours before the assay on E-VIPR, HEK cells expressing human Nav1.8 were seeded in 384-well poly-lysine coated plates at 15,000-20,000 cells per well. […] Cells were grown in vented cap flasks, in 90% humidity and 5% CO2.
1) Pre-spotted compounds (in neat DMSO) into compound plates. […] Final compound plate volume was 80 μL (80-fold intermediate dilution from 1 μL DMSO spot; 160-fold final dilution after transfer to cell plate).
2) Prepared Hexyl Dye Solution.
3) Prepared cell plates. On the day of the assay, medium was aspirated and cells were washed three times with 100 μL of Bath1 Solution, maintaining 25 μL residual volume in each well.
4) Dispensed 25 μL per well of Hexyl Dye Solution into cell plates. Incubated for 20-35 minutes at room temp or ambient conditions.
5) Dispensed 80 μL per well of Bath1 into compound plates. Acid Yellow-17 (1 mM) was added and Potassium Chloride was altered from 4.5 to 20 mM depending on the NaV subtype and assay sensitivity.
6) Washed cell plates three times with 100 μL per well of Bath1, leaving 25 μL of residual volume. […] Incubated for 20-35 minutes at room temp/ambient condition.
7) Read Plate on E-VIPR. […] A pre-stimulus recording was performed for 0.5 seconds to obtain the un-stimulated intensities baseline. The stimulatory waveform was followed by 0.5 seconds of post-stimulation recording to examine the relaxation to the resting state.
Data was analyzed and reported as normalized ratios of emission intensities measured in the 460 nm and 580 nm channels. The response as a function of time was reported as the ratios obtained using the following formula: […]
The data was further reduced by calculating the initial (Ri) and final (Rf) ratios. These were the average ratio values during part or all of the pre-stimulation period, and during sample points during the stimulation period. The response to the stimulus R=Rf/Ri was then calculated and reported as a function of time.
Control responses were obtained by performing assays in the presence of a compound with the desired properties (positive control), such as tetracaine, and in the absence of pharmacological agents (negative control). Responses to the negative (N) and positive (P) controls were calculated as above.

A further data set is described as follows: Aqueous solubility study. Particulars: thermodynamic from solid. In kind it is physicochemical. As to the method:
The aqueous solubility of compound 9 and 9a were determined according to the following procedure. Solubility data was determined at ambient conditions by equilibrating the compound with water on a shaking bed for 24 hours, followed by centrifugation and separation of the saturated solutions. The pH value of each media was measured before centrifugation, and the saturated solutions were assayed by HPLC.

Data set [2] can be described thus: Monkey oral pharmacokinetic study. The class given is in vivo, cynomolgus monkeys. As to the method: (§1) Sample Analysis. […] Before extraction, plasma samples were diluted using blank plasma at an appropriate dilution factor, as necessary, depending on the dose level. […] After centrifugation, the supernatant extract (10 μL) was injected onto the LC/MS/MS system. The HPLC system included a Phenomenex Synergy Kinetix C8 column, 2.6 micron, 2.0 mm diameter×75 mm long eluted with a gradient mobile phase consisting of 0.1% formic acid in water or in acetonitrile.
(§2) The analytes were detected by MS/MS with Electrospray Ionization (ESI) in the mode of multiple reaction monitoring (MRM). […] The intra-day and inter-day assay accuracy was within 20% of the nominal values. The intra- and inter-day assay variability was ≦20%.
(§3) Pharmacokinetic Data Analysis.
(§4) Key pharmacokinetic parameters such as AUCall, AUCextra, Cmax, tmax, Cl, Vss and t1/2 were determined.
(§5) Statistical Data Analysis. Descriptive statistical data of pharmacokinetic parameters were calculated, including the mean, standard deviation (SD), using Watson LIMS version 7.4 SP3 or Microsoft Excel 2000.
Male or female cynomolgus monkeys (n=3 per dose group) were administered single nominal PO doses of 10, 40, 100, 300, 500, 750 and 1000 mg/kg of compound 9 by gavage. Compound 9 was formulated in 30% PEG400 and 10% TPGS in water or 5% TPGS, 5% PVP-K30 in 50 mM Citrate, pH 5. […]

Data set [3] in a line: Rat oral pharmacokinetic study. The class given is in vivo, Sprague Dawley rats. As to the method: as §1, §2, §3, §4, §5
Groups of male and female Sprague Dawley rats (n=3 per dose group) were administered single nominal oral doses of 10, 100, 400, 640, 1000 mg/kg (for males) and 30, 100, 300, 640, 1000 mg/kg (for females) of compound 9 by gavage. Compound 9 was formulated in either 30% PEG400 and 10% TPGS in water or 5% TPGS, 5% PVP-K30 in 50 mM Citrate, pH 5. Animals had free access to food and water before and after dosing. Blood samples (approximately 0.25 mL each) were collected via a carotid artery catheter prior to dosing and at 0.25, 0.5, 1, 2, 4, 8, 12, 24, 48 and 72 hours post dose. Each blood sample was collected into a tube that was kept on wet ice and contained potassium EDTA as the anticoagulant. Plasma was separated and stored at approximately −70° C. until analysis.

A short description of data set [4]: Rat IV pharmacokinetic study. The settings on record: rat, single IV bolus 1 mg/kg of compound 9; LLOQ 2.5 ng/mL. The class given is in vivo, Sprague Dawley rats. The procedure: as §1, §2, §3, §4, §5
Male Sprague Dawley rats (n=3) were administered a single nominal IV bolus dose of 1 mg/kg of compound 9 via a jugular vein cannula. […] Animals had free access to food and water before and after dosing. Blood samples (approximately 0.25 mL each) were collected via a carotid artery catheter prior to dosing and at 5 min, 10 min, 0.25, 0.5, 1, 2, 4, 8, 12, 24 hours post dose. Each blood sample was collected into a tube that was kept on wet ice and contained potassium EDTA as the anticoagulant. Plasma was separated and stored at approximately −70° C. until analysis.
Plasma concentration vs. time data were subjected to noncompartmental pharmacokinetic (PK) analysis.

Like-named read-outs stand apart in the source and are kept apart here.

Sequence of human Nav1.8 (Q9Y5Y9 whole entry): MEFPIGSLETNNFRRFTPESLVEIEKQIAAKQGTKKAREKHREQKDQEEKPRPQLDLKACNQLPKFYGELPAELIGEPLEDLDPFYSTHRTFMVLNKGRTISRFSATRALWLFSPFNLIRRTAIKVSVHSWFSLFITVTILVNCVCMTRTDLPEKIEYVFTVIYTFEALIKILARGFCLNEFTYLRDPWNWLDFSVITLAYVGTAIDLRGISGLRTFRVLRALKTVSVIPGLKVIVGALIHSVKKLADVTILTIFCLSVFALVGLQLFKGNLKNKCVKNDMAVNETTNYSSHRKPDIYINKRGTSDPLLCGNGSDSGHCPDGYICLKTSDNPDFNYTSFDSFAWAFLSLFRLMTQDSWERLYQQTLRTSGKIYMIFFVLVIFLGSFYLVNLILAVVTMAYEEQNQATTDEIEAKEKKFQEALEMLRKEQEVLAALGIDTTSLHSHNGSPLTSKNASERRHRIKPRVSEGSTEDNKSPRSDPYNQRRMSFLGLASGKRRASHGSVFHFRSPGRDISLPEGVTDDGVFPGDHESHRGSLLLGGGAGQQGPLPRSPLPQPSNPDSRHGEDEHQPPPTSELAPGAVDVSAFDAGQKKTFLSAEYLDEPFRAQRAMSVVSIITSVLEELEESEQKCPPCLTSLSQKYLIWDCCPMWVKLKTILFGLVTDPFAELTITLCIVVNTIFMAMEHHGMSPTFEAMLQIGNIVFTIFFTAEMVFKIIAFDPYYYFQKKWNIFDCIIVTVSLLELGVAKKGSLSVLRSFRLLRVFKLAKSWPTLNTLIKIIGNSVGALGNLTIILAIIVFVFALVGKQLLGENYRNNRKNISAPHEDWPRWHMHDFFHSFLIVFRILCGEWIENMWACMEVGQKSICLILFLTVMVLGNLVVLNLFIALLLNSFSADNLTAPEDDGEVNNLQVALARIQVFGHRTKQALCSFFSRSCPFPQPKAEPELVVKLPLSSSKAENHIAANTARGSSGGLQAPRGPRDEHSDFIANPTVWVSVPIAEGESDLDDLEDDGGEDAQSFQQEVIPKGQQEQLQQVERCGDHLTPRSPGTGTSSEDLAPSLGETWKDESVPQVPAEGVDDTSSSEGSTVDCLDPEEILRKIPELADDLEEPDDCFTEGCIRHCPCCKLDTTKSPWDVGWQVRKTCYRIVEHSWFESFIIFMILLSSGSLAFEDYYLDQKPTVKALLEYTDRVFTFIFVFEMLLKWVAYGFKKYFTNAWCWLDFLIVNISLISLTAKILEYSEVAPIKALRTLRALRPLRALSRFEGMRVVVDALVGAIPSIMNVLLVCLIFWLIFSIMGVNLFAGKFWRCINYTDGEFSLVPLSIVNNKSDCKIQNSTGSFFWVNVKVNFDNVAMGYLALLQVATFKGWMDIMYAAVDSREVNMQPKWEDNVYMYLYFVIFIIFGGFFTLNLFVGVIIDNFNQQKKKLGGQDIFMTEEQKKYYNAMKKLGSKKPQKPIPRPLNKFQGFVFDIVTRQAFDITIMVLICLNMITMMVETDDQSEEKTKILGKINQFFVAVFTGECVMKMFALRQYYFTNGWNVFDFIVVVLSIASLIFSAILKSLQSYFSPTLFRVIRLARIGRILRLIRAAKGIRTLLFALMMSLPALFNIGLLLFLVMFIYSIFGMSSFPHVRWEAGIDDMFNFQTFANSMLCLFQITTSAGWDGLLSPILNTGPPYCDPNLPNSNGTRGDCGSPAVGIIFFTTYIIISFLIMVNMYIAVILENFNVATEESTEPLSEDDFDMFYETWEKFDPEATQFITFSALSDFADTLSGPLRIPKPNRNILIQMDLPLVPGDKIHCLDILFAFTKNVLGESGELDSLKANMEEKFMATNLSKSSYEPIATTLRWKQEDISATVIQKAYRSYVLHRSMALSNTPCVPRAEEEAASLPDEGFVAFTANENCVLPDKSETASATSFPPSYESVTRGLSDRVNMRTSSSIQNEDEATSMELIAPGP

As for `Cc1cc(F)ccc1Oc1cc(C(F)(F)F)ccc1C(=O)Nc1ccn(COP(=O)(O)O)c(=O)c1` [crystalline Form B, (4-(2-(4-fluoro-2-methylphenoxy)-4-(trifluoromethyl)benzamido)-2-oxopyridin-1(2H)-yl)methyl dihydrogen phosphate], the “chemical and physical stability” value in data set [1] (5° C./dry, 40° C./dry, 25° C. with relative humidity of up to 60%, 40° C. with relative humidity of up to 75%) was “chemically and physically stable for at least one month”; in data set [1] (open dish at 40° C., 40° C. with RH up to 75%, 25° C. with RH up to 60%, closed dish at 5° C. with a desiccator), “chemically and physically stable for at least three months”.

Usually IC50 stands for the concentration at which inhibition is half-maximal. With `O=C(Nc1ccn(COP(=O)(O)O)c(=O)c1)c1cc(C(F)(F)F)ccc1Oc1ccc(F)cc1` [Compound 18, (4-(2-(4-fluorophenoxy)-5-(trifluoromethyl)benzamido)-2-oxopyridin-1(2H)-yl)methyl dihydrogen phosphate], inhibition on human Nav1.8 was half-maximal at 457 nM (IC50).

Compound `Cc1cc(F)ccc1Oc1ccc(C(F)(F)F)cc1C(=O)Nc1ccn(COP(=O)(O)O)c(=O)c1` [Compound 10, (4-(2-(4-fluoro-2-methylphenoxy)-5-(trifluoromethyl)benzamido)-2-oxopyridin-1(2H)-yl)methyl dihydrogen phosphate] returned an IC50 on human Nav1.8 of 86 nM.

At human Nav1.8, `COc1cc(F)ccc1Oc1cc(C(F)(F)C(F)(F)F)ccc1C(=O)Nc1ccn(COP(=O)(O)O)c(=O)c1` [Compound 2, (4-(2-(4-fluoro-2-methoxyphenoxy)-4-(perfluoroethyl)benzamido)-2-oxopyridin-1(2H)-yl)methyl dihydrogen phosphate] gave an IC50 of 28 nM.

The term solubility denotes how much of the substance goes into solution per volume. Regarding `Cc1cc(F)ccc1Oc1cc(C(F)(F)F)ccc1C(=O)Nc1ccn(COP(=O)(O)O)c(=O)c1` [Compound 9, (4-(2-(4-fluoro-2-methylphenoxy)-4-(trifluoromethyl)benzamido)-2-oxopyridin-1(2H)-yl)methyl dihydrogen phosphate], the midpoint of inhibition on human Nav1.8, the IC50, lay at 330 nM. Besides, the solubility at 24 h in “Aqueous solubility study” (aqueous medium, aqueous buffer, pH 3, crystalline, ambient conditions, 24 hours, read-out: Solubility) is 110 µg/mL; in the data set “Aqueous solubility study” (aqueous medium, aqueous buffer, pH 3.3, crystalline, ambient conditions, 24 hours, read-out: Solubility) it was 240 µg/mL; in the data set “Aqueous solubility study” (aqueous medium, aqueous buffer, pH 5, crystalline, ambient conditions, 24 hours, read-out: Solubility), 420 µg/mL; in “Aqueous solubility study” (aqueous medium, aqueous buffer, pH 7, crystalline, ambient conditions, 24 hours, read-out: Solubility) it was 500 µg/mL; in “Aqueous solubility study” (aqueous medium, aqueous buffer, pH 8, crystalline, ambient conditions, 24 hours, read-out: Solubility) it was 2240 µg/mL; in the data set “Aqueous solubility study” (aqueous medium, simulated gastric fluid, pH 1, crystalline, ambient conditions, 24 hours, read-out: Solubility), 2 µg/mL. Further, in “Aqueous solubility study” (water, read-out: aqueous solubility in water), the solubility at 24 h was approximately 300 µg/mL. Also, the “plasma concentrations of compound 9” value in data set [2] (monkey, single PO doses 10-1000 mg/kg of compound 9, LLOQ 10.0 to 25.0 ng/mL) is given as “below LLOQ for the majority of the samples”; in data set [3] (rat, single oral doses 10-1000 mg/kg of compound 9, LLOQ 2.5 to 25 ng/mL), “below LLOQ for the majority of the samples”; in data set [4], “below LLOQ for the majority of the samples”. Moreover, the “in vivo conversion of prodrug into parent compound” value in data set [2] (monkeys) and in data set [3] (rats) was “converted in vivo into compound 9a” each time.

As for `COc1cc(F)ccc1Oc1cc(Cl)c(Cl)cc1C(=O)Nc1ccn(COP(=O)(O)O)c(=O)c1` [Compound 1, (4-(4,5-dichloro-2-(4-fluoro-2-methoxyphenoxy)benzamido)-2-oxopyridin-1(2H)-yl)methyl dihydrogen phosphate], the IC50 against human Nav1.8 stood at 4 nM.

The compound `Cc1cc(F)ccc1Oc1cc(Cl)ccc1C(=O)Nc1ccn(COP(=O)(O)O)c(=O)c1` [Compound 13, (4-(4-chloro-2-(4-fluoro-2-methylphenoxy)benzamido)-2-oxopyridin-1(2H)-yl)methyl dihydrogen phosphate] returned an IC50 on human Nav1.8 of 329 nM.
